Reference: US20220370416A1, “COMPOUNDS AND METHODS FOR TARGETED DEGRADATION OF KRAS” (Arvinas Operations, Inc., priority 2020, published 2022)

Tests used:
HiBit-KRAS^G12C [1] = molecular target: T1, HiBit-KRAS^G12C (Homo sapiens, UniProt P01116, G12C); experiment: HiBit degradation assay in SW1573 HiBit-KRas^G12C cells; assay type: cell-based; design: expressed in transfected cells; host or cells: SW1573 (clone E6), modified pcDNA3.1 vector, TK promoter; conditions: 0.1% DMSO, 24 hours; for DC50: read-out: KRas^G12C-HIBit (SW1573; 0.1% DMSO) DC50*; for Dmax: SW1573, SW1573 HiBit-KRas^G12C, read-out: KRas^G12C-HiBit (SW1573; 0.1% DMSO) Dmax**
Summary of the method: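 HiBit-KRAS G12C degradation was measured after a 24 h compound exposure (titrated 10 μM–20 nM) in engineered SW1573 cells. Lytic HiBit luminescence, expressed relative to DMSO controls, yielded DC50 and Dmax from 4-parameter fits. Concentrations causing ≥50% loss in alamar blue viability were omitted as cytotoxic.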

HiBit-KRAS^G12C [2] = molecular target: T1, HiBit-KRAS^G12C; experiment: HiBit degradation assay in MiaPaCa-2 HiBit-KRas^G12C cells; assay type: cell-based; conditions: MiaPaCa-2 HiBit-KRas^G12C cells, 24 hours, maximum degradation
Procedure: Reagents. SW1573 (CRL-2170) and MiaPaCa-2 (CRL-1420) cells were purchased from ATCC. Both cell lines are […] for the G12C mutation in KRAS. SW1573 cells were cultured in DMEM+F12+Glutamax (+Sodium Bicarbonate, +sodium pyruvate, Thermofisher scientific, #10565) supplemented with 10% FBS (Thermofisher scientific, #2060357) and 1% Antibiotic-Antimycotic (Thermofisher scientific, #15240096). MiaPaCa-2 cells were cultured in DMEM+Glutamax media (Thermofisher scientific, #10566) supplemented with 10% FBS (Thermofisher scientific, #2060357) and 1% Antibiotic-Antimycotic (Thermofisher scientific, #15240096). For degradation assays, 384 well plates were purchased from Corning (Corning® CellBIND® 384-well Flat Clear Bottom Black Polystyrene Microplates, Low Flange, #3770). Gambogic acid was purchased from Selleckchem (#S2448). Alamar blue was purchased from Thermofisher scientific (A50101) and used according to manufacturer instructions. The Nano-Glo® HiBit Lytic Detection System and Nano-Glo® HiBit Blotting System were purchased from Promega (#N3050 and #N2410) and used according to manufacturer instructions.
To create the MiaPaCa-2 HiBit-KRAS^G12C cell line, CRISPR-Cas9 was used to insert the HiBit tag onto the N-terminus of one or more of the four endogenous KRAS^G12C alleles. After knock-in of the tag, individual clones were isolated by single cell dilution and screened for HiBit insertion by PCR. Clones containing the HiBit tag were sequenced and one was identified that contained the desired HiBit-KRAS^G12C sequence at one allele while the remaining three KRAS^G12C alleles were unaffected. This line was used for all subsequent studies.
Either SW1573 HiBit-KRas^G12C or MiaPaCa-2 HiBit-KRas^G12C cells were plated at 9000 cells/well in a 384 well plate (Corning #3770). Exemplary heterobifunctional molecules and positive controls were diluted in the appropriate cell media and applied to the plated cells resulting in a final concentration titration of 10 μM to 20 nM in either 0.1% or 0.5% dimethyl sulfoxide (DMSO). Gambogic acid was used as a positive control for cytotoxicity and titrated from 10 μM to 78 nM. All assays were performed in triplicate. Cells were treated with compounds for 24 hours at 37° C. in an incubator containing 5% CO2. Following treatment, alamar blue was used to determine if any compounds led to a loss in cell viability after 24 hours. The 10× alamar blue reagent was added to a final concentration of 1× as recommended by the manufacturer and cells were returned to the incubator for 4 hours. Plates were then allowed to equilibrate to room temperature and fluorescence was measured using a Perkin-Elmer EnVision. After completion of the fluorescence read, the liquid from each well was removed and the cells were washed with PBS. The Nano-Glo® HiBiT detection reagent was prepared according to the manufacturer's instructions and added to each well after the PBS wash was removed. Following incubation at room temperature for 45 minutes, the luminescence was read using the ultra-sensitive luminescence aperture on the Envision instrument.
Fluorescence values from the alamar blue treatment were normalized to the DMSO only control for each compound titration. We hypothesized that compounds that led to a ≥50% loss in cell viability of the KRAS-independent SW1573 HiBit-KRas^G12C cells were likely generally cytotoxic and loss of HiBit-KRAS^G12C signal from these compounds may be due to lower cell number and not specific KRAS^G12C degradation. These points were therefore excluded from the data analysis for degradation. […]

T1 sequence (P01116 1-186 isoform P01116-2 G12C limits assumed): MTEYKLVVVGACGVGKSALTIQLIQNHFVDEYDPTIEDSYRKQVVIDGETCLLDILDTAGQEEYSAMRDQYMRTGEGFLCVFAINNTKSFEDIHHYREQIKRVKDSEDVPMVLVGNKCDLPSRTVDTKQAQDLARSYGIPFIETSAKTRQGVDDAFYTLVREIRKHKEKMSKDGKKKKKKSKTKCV

Structure (SMILES) | DC50 (HiBit-KRAS^G12C [1]; SW1573 HiBit-KRas^G12C) | further results
C=CC(=O)N1CCN(c2nc(OCCN3CCC(OCCOc4cc([C@H](C(=O)N5C[C@H](O)C[C@H]5C(=O)N[C@@H](C)c5ccc(-c6scnc6C)cc5)C(C)C)on4)CC3)nc3c(F)c(-c4cc(O)cc5ccccc45)c(Cl)cc23)C[C@@H]1CC#N (atropisomer, axis not shown) [Compound 3, (2S,4R)-1-((R)-2-(3-(2-((1-(2-(((S)-4-((S)-4-acryloyl-3-(cyanomethyl)piperazin-1-yl)-6-chloro-8-fluoro-7-(3-hydroxynaphthalen-1-yl)quinazolin-2-yl)oxy)ethyl)piperidin-4-yl)oxy)ethoxy)isoxazol-5-yl)-3-methylbutanoyl)-4-hydroxy-N-((S)-1-(4-(4-methylthiazol-5-yl)phenyl)ethyl)pyrrolidine-2-carboxamide] | < 100 nM | KRas^G12C-HiBit (SW1573; 0.1% DMSO) Dmax** (HiBit-KRAS^G12C [1]; SW1573 HiBit-KRas^G12C): A (A ≥ 70); KRas^G12C-HiBiT (MiaPaCa; 0.1% DMSO) DMax (HiBit-KRAS^G12C [2]; 0.1% DMSO): A (A ≥ 70); KRas^G12C-HiBiT (MiaPaCa; 0.5% DMSO) DMax (HiBit-KRAS^G12C [2]; 0.5% DMSO): A (A ≥ 70)
C=CC(=O)N1CCN(c2nc(O[C@H](C)CN3CCC(OCCOc4cc(-c5scnc5C)ccc4CNC(=O)[C@@H]4C[C@@H](O)CN4C(=O)[C@@H](c4cc(C)no4)C(C)C)CC3)nc3c(F)c(-c4cc(O)cc5ccccc45)c(Cl)cc23)CC1 [Compound 78, (2S,4R)-N-({2-[2-({1-[(2R)-2-{[6-chloro-8-fluoro-7-(3-hydroxynaphthalen-1-yl)-4-[4-(prop-2-enoyl)piperazin-1-yl]quinazolin-2-yl]oxy}propyl]piperidin-4-yl}oxy)ethoxy]-4-(4-methyl-1,3-thiazol-5-yl)phenyl}methyl)-4-hydroxy-1-[(2R)-3-methyl-2-(3-methyl-1,2-oxazol-5-yl)butanoyl]pyrrolidine-2-carboxamide] | > 1000 nM | –
C=CC(=O)N1CCN(c2nc(O[C@H](C)CN3CCC(OCCOCCOCCOCCOCCOc4cc(-c5scnc5C)ccc4CNC(=O)[C@@H]4C[C@@H](O)CN4C(=O)[C@H](c4cc(C)no4)C(C)C)CC3)nc3c(F)c(-c4cc(O)cc5ccccc45)c(Cl)cc23)CC1 [Compound 79, (2S,4R)-N-[(2-{[14-({1-[(2R)-2-{[6-chloro-8-fluoro-7-(3-hydroxynaphthalen-1-yl)-4-[4-(prop-2-enoyl)piperazin-1-yl]quinazolin-2-yl]oxy}propyl]piperidin-4-yl}oxy)-3,6,9,12-tetraoxatetradecan-1-yl]oxy}-4-(4-methyl-1,3-thiazol-5-yl)phenyl)methyl]-4-hydroxy-1-[(2S)-3-methyl-2-(3-methyl-1,2-oxazol-5-yl)butanoyl]pyrrolidine-2-carboxamide] | > 1000 nM | –
C=CC(=O)N1CCN(c2nc(O[C@H](C)CN3CCC(OCCOCCOCCOCCOCCOc4cc(-c5scnc5C)ccc4CNC(=O)[C@@H]4C[C@@H](O)CN4C(=O)[C@@H](c4cc(C)no4)C(C)C)CC3)nc3c(F)c(-c4cc(O)cc5ccccc45)c(Cl)cc23)CC1 [Compound 80] | > 1000 nM | Dmax (HiBit-KRAS^G12C [1]): 35 to 70%
C=CC(=O)N1CCN(c2nc(OC[C@@H]3C[C@@H](OCCOCCOCCOCCOCCOCCOCC(=O)N[C@H](C(=O)N4C[C@H](O)C[C@H]4C(=O)N[C@@H](C)c4ccc(-c5scnc5C)cc4)C(C)(C)C)CN3C)nc3c2CCN(c2cccc4ccccc24)C3)C[C@@H]1CC#N [Compound 81, (2S,4R)-1-[(2S)-2-(20-{[(3R,5S)-5-[({4-[(3S)-3-(cyanomethyl)-4-(prop-2-enoyl)piperazin-1-yl]-7-(naphthalen-1-yl)-5H,6H,7H,8H-pyrido[3,4-d]pyrimidin-2-yl}oxy)methyl]-1-methylpyrrolidin-3-yl]oxy}-3,6,9,12,15,18-hexaoxaicosanamido)-3,3-dimethylbutanoyl]-4-hydroxy-N-[(1S)-1-[4-(4-methyl-1,3-thiazol-5-yl)phenyl]ethyl]pyrrolidine-2-carboxamide] | > 1000 nM | –
C=CC(=O)N1CCN(c2nc(O[C@H](C)CN3CCC(OCCOCCOCCOCCOCCOCCOCCOCCOCCOCCOCC(=O)N[C@H](C(=O)N4C[C@H](O)C[C@H]4C(=O)N[C@@H](C)c4ccc(-c5scnc5C)cc4)C(C)(C)C)CC3)nc3c(F)c(-c4cc(O)cc5ccccc45)c(Cl)cc23)CC1 [Compound 83, (2S,4R)-1-[(2S)-2-[32-({1-[(2R)-2-{[6-chloro-8-fluoro-7-(3-hydroxynaphthalen-1-yl)-4-[4-(prop-2-enoyl)piperazin-1-yl]quinazolin-2-yl]oxy}propyl]piperidin-4-yl}oxy)-3,6,9,12,15,18,21,24,27,30-decaoxadotriacontanamido]-3,3-dimethylbutanoyl]-4-hydroxy-N-[(1S)-1-[4-(4-methyl-1,3-thiazol-5-yl)phenyl]ethyl]pyrrolidine-2-carboxamide] | > 1000 nM | –
C=CC(=O)N1CCN(c2nc(O[C@H](C)CN3CCC(OCCOCCOCCOCCOCCOCCOCCOCCOCC(=O)N[C@H](C(=O)N4C[C@H](O)C[C@H]4C(=O)N[C@@H](C)c4ccc(-c5scnc5C)cc4)C(C)(C)C)CC3)nc3c(F)c(-c4cc(O)cc5ccccc45)c(Cl)cc23)CC1 [Compound 84, (2S,4R)-1-[(2S)-2-[26-({1-[(2R)-2-{[6-chloro-8-fluoro-7-(3-hydroxynaphthalen-1-yl)-4-[4-(prop-2-enoyl)piperazin-1-yl]quinazolin-2-yl]oxy}propyl]piperidin-4-yl}oxy)-3,6,9,12,15,18,21,24-octaoxahexacosanamido]-3,3-dimethylbutanoyl]-4-hydroxy-N-[(1S)-1-[4-(4-methyl-1,3-thiazol-5-yl)phenyl]ethyl]pyrrolidine-2-carboxamide] | > 1000 nM | –
C=CC(=O)N1CCN(c2nc(OC[C@@H]3C[C@@H](OCCOc4cc(-c5scnc5C)ccc4CNC(=O)[C@@H]4C[C@@H](O)CN4C(=O)[C@@H](c4cc(C)no4)C(C)C)CN3C)nc3c2CCN(c2cccc4ccccc24)C3)C[C@@H]1CC#N [Compound 87, (2S,4R)-N-{[2-(2-{[(3R,5S)-5-[({4-[(3S)-3-(cyanomethyl)-4-(prop-2-enoyl)piperazin-1-yl]-7-(naphthalen-1-yl)-5H,6H,7H,8H-pyrido[3,4-d]pyrimidin-2-yl}oxy)methyl]-1-methylpyrrolidin-3-yl]oxy}ethoxy)-4-(4-methyl-1,3-thiazol-5-yl)phenyl]methyl}-4-hydroxy-1-[(2R)-3-methyl-2-(3-methyl-1,2-oxazol-5-yl)butanoyl]pyrrolidine-2-carboxamide] | > 1000 nM | Dmax (HiBit-KRAS^G12C [1]): 35 to 70%
C=CC(=O)N1CCN(c2nc(O[C@H](C)CN3CCC(OCCOCCOCCOCCOCCOCCOCC(=O)N[C@H](C(=O)N4C[C@H](O)C[C@H]4C(=O)N[C@@H](C)c4ccc(-c5scnc5C)cc4)C(C)(C)C)CC3)nc3c(F)c(-c4cc(O)cc5ccccc45)c(Cl)cc23)CC1 [Compound 88, (2S,4R)-1-[(2S)-2-[20-({1-[(2R)-2-{[6-chloro-8-fluoro-7-(3-hydroxynaphthalen-1-yl)-4-[4-(prop-2-enoyl)piperazin-1-yl]quinazolin-2-yl]oxy}propyl]piperidin-4-yl}oxy)-3,6,9,12,15,18-hexaoxaicosanamido]-3,3-dimethylbutanoyl]-4-hydroxy-N-[(1S)-1-[4-(4-methyl-1,3-thiazol-5-yl)phenyl]ethyl]pyrrolidine-2-carboxamide] | > 1000 nM | –
